This is an account of results in patent US9839701B2, “Aromatic amino acid derivative and positron emission topography (PET) probe using the same” (OSAKA UNIVERSITY, priority 2013, dated 2017).

In series [1] the test system is tumor derived from human pancreatic carcinoma cell line MIAPaCa-2. The series is described as follows: Accumulation in subcutaneous tumor of nude mouse, HPLC detection after PITC labeling. The series is classed as in vivo. The conditions noted are these: 100 nmol via tail vein, tumor excised 1 hour after administration, FIG. 3. The method, then: A tumor derived from subcutaneously implanted MIAPaCa-2 cells in a nude mouse was excised, and 0.1 g of the tumor was subcutaneously transplanted into a 6-week-old female nude mouse (BALB/cAJc1-nu). One month after the transplantation, the compound of Example 1 was dissolved in physiological saline at a concentration of 1 mM, and 0.1 mL (100 nmol) of the solution or 0.1 mL of physiological saline was administered from the tail vein. One hour after the administration, the tumor was excised, the amino acids in the tumor tissue were labeled with phenylisothiocyanate (PITC), and the labeled compound was detected by HPLC for evaluation of the accumulation.

The target in series [2] is T1, human LAT1 (Homo sapiens, UniProt Q01650).
T1 construct: expressed in transfected cells
The series is described as follows: Inhibition of amino acid uptake in human LAT1 stably expressing cell line. The series is classed as cell-based. The text has this:
A human LAT1 expression vector or a human LAT2 expression vector was transfected using Lipofectamine (registered trademark) 2000 (Invitrogen) into a human embryonic kidney cell line HEK293. G418-resistant HEK293 clones were selected, and among them, a clone showing human LAT1-specific amino acid uptake and a clone showing human LAT2-specific amino acid uptake were selected and established as a human LAT1 stably expressing cell line and a human LAT2 stably expressing cell line, respectively (Khunweeraphong et al. J Pharmacol Sci. 2012 Aug. 18; 119(4): 368-80. Epub 2012 Jul. 31).
The human LAT1 stably expressing cell line and the human LAT2 stably expressing cell line were seeded at 1.2×10^5 cells/well on separate collagen-coated 24-well plates, and after 48 hours, the cells were washed 3 times with an uptake buffer (Na^2+-free Hank's balanced salt solution (HBSS), pH 7.4) prewarmed at 37° C. Compound 10a, compound 10b or a positive control FAMT (fluoro-α-methyltyrosine) was added at 100 μM, and incubation was performed at 37° C. for 3 minutes. Cells not treated with any of these compounds were used as a negative control. After the incubation, 1 μM of [^14C]L-leucine or [^14C]alanine was added to the wells, [^14C]L-leucine or [^14C]alanine uptake was allowed to proceed for 1 minute, and the cells were washed 3 times with an ice-cold uptake buffer. Subsequently, 500 μL of 0.1 M NaOH was added to each well for cell lysis, 20 μL of the lysate was used for the measurement of the protein concentration, and the remaining lysate was used for the measurement of the intracellular radioactivity. The measured radioactivity was normalized to the protein concentration, and on the assumption that the amino acid uptake activity in the negative control was 100%, the percentage (%) of inhibition of amino acid uptake in the presence of each compound was calculated.
Using the same cell lines as described in Example 2, the compound of Example 1 was examined for the inhibitory effect on leucine or alanine uptake in the human LAT1 stably expressing cell line and the human LAT2 stably expressing cell line in the same manner as in Example 2. FAMT was used as the positive control. The compound of Example 1 or FAMT was added at 100 μM. Cells not treated with either of these compounds were used as a negative control. On the assumption that the amino acid uptake activity in the negative control (control) was 100%, the percentage (%) of inhibition of amino acid uptake in the presence of FAMT or the compound of Example 1 was calculated. In addition, the cancer cell selectivity was calculated as the ratio of the amino acid uptake activity in the human LAT2 stably expressing cell line relative to that in the human LAT1 stably expressing cell line.
In another experiment, the cells were treated with the compound of Example 1 at eight different concentrations (0.1, 1, 3, 10, 30, 100, 300 and 1000 μM), and the concentration causing 50% inhibition of amino acid uptake was calculated as the IC50 value.
A human LAT1 stably expressing cell line and a human LAT2 stably expressing cell line, each of which was the same as described in Example 2, were seeded at 1.2×10^5 cells/well, and after 48 hours, the cells were washed 3 times with an uptake buffer (Na^2+-free Hank's balanced salt solution (HBSS), pH 7.4) prewarmed at 37° C. The test compounds, L-tyrosine or the positive control FAMT (fluoro-α-methyltyrosine) was added at 30 μM, and incubation was performed at 37° C. for 3 minutes. Cells not treated with any of these compounds were used as a negative control. After the incubation, 1 μM of [^14C]L-leucine or [^14C]alanine was added to the wells, [^14C]L-leucine or [^14C]alanine uptake was allowed to proceed for 1 minute, and the cells were washed 3 times with an ice-cold uptake buffer. […]

Broadly, the inhibition is the share of the control response that was lost under treatment. Broadly, the IC50 is the concentration needed to halve the response being measured.

T1 sequence (Q01650 whole entry): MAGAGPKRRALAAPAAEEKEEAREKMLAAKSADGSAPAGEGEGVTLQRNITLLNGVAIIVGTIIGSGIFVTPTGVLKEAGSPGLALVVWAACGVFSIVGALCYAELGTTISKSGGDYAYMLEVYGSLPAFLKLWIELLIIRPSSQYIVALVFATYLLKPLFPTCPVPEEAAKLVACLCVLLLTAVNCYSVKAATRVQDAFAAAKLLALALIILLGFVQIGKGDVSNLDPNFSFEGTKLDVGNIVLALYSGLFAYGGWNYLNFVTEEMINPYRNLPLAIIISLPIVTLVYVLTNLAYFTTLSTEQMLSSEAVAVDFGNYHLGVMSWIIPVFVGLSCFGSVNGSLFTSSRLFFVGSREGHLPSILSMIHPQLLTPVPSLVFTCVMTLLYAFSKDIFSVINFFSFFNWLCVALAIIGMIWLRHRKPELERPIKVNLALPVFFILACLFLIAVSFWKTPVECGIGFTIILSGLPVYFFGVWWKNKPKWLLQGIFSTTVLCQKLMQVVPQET
T1 sequence (P08195 102-630 partner): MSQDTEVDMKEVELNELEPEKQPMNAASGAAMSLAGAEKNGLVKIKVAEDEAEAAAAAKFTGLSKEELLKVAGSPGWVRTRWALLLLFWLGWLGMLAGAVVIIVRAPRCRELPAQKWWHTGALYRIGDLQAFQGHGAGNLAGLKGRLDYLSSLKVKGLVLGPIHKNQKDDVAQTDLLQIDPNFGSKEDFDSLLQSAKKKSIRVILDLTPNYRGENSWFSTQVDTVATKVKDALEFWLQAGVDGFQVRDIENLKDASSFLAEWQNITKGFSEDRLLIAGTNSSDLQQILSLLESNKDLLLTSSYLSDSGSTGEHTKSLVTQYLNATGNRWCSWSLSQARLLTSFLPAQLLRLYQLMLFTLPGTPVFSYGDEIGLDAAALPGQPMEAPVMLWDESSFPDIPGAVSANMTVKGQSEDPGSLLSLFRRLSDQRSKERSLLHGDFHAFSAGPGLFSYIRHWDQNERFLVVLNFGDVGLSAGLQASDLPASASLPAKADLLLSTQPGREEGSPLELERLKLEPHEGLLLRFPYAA

As to `NC(Cc1cc(OCCF)ccc1I)C(=O)O` (stereo not shown) [Example 1, 2-amino-3-(5-(2-fluoroethoxy)-2-iodophenyl)propanoic acid], the Accumulation in tumor result in series [1] is “accumulated intensively in the tumor”. For the same compound, the inhibition at 100 µM in series [2] (HEK293, compound at 100 μM, human LAT1 stably expressing HEK293 cell line, 1 μM [14C]L-leucine or [14C]alanine, 1 min uptake, read-out: Percentage of inhibition of LAT1-mediated amino acid uptake) was determined as 92.5%. This compound came in with an IC50 in series [2] (eight concentrations 0.1-1000 μM) of 9.2 µM. The “Selectivity for LAT1 over LAT2” value in series [2] (from IC50 values) is recorded as at least 9 times.
